Reference: the NIST ThermoML archive (doi:10.1016/j.jct.2005.03.020)

Assays:
[1] = xn = mol fraction of the nth substance listed; settings: 298.15 K, 101.33 kPa, Liquid
[2] = excess molar enthalpy (molar enthalpy of mixing); xn = mol fraction of the nth substance listed; settings: 298.15 K, 101.33 kPa, Liquid
[3] = 298.15 K; 101.33 kPa; Liquid
[4] = refractive index (Na D-line) (dimensionless); settings: 298.15 K; 101.33 kPa; Liquid; Standard Abbe refractometry

ClCCCCCCl [1,5-dichloropentane] + CCCC(=O)OCC
Settings	excess molar enthalpy [kJ/mol]	mass density [kg/m3]
[1], x2 = 0.0569	–	1082.35
[1], x2 = 0.1136	–	1069.48
[1], x2 = 0.171	–	1056.53
[1], x2 = 0.2286	–	1043.61
[1], x2 = 0.2917	–	1029.5
[1], x2 = 0.3489	–	1016.71
[1], x2 = 0.4084	–	1003.45
[1], x2 = 0.4653	–	990.76
[1], x2 = 0.5243	–	977.72
[1], x2 = 0.5825	–	964.82
[1], x2 = 0.6411	–	951.9
[1], x2 = 0.7595	–	925.89
[1], x2 = 0.8188	–	912.92
[1], x2 = 0.8799	–	899.6
[1], x2 = 0.9403	–	886.46
[2], x2 = 0.0571	-0.0082	–
[2], x2 = 0.1213	-0.0269	–
[2], x2 = 0.1884	-0.0501	–
[2], x2 = 0.2532	-0.0738	–
[2], x2 = 0.3155	-0.0983	–
[2], x2 = 0.3746	-0.124	–
[2], x2 = 0.4289	-0.151	–
[2], x2 = 0.478	-0.174	–
[2], x2 = 0.5235	-0.185	–
[2], x2 = 0.5576	-0.191	–
[2], x2 = 0.5639	-0.192	–
[2], x2 = 0.6129	-0.193	–
[2], x2 = 0.6726	-0.188	–
[2], x2 = 0.736	-0.168	–
[2], x2 = 0.8047	-0.138	–
[2], x2 = 0.8728	-0.0986	–
[2], x2 = 0.9406	-0.0475	–

ClCCCCCCl [1,5-dichloropentane] + CCCCC(=O)OCC
Settings	excess molar enthalpy [kJ/mol]	mass density [kg/m3]
[1], x2 = 0.1036	–	1068.61
[1], x2 = 0.1561	–	1055.46
[1], x2 = 0.2082	–	1042.59
[1], x2 = 0.2623	–	1029.48
[1], x2 = 0.3179	–	1016.24
[1], x2 = 0.3785	–	1002.01
[1], x2 = 0.4369	–	988.54
[1], x2 = 0.4943	–	975.55
[1], x2 = 0.5534	–	962.34
[1], x2 = 0.6141	–	949.06
[1], x2 = 0.6755	–	935.8
[1], x2 = 0.7367	–	922.8
[1], x2 = 0.8008	–	909.43
[1], x2 = 0.8658	–	896.13
[1], x2 = 0.9318	–	882.79
[2], x2 = 0.0481	-0.0102	–
[2], x2 = 0.1066	-0.0319	–
[2], x2 = 0.1663	-0.0537	–
[2], x2 = 0.228	-0.0861	–
[2], x2 = 0.2876	-0.117	–
[2], x2 = 0.3438	-0.149	–
[2], x2 = 0.3973	-0.181	–
[2], x2 = 0.416	-0.195	–
[2], x2 = 0.4433	-0.206	–
[2], x2 = 0.4786	-0.214	–
[2], x2 = 0.5288	-0.218	–
[2], x2 = 0.5848	-0.216	–
[2], x2 = 0.6478	-0.209	–
[2], x2 = 0.7165	-0.181	–
[2], x2 = 0.7867	-0.153	–
[2], x2 = 0.8597	-0.111	–
[2], x2 = 0.9325	-0.0573	–

ClCCCCCCCl [1,6-dichlorohexane]
Settings	mass density [kg/m3]	refractive index
[3]	1063.72	–
[4]	–	1.4555

ClCCCCCCCl [1,6-dichlorohexane] + CCCC(=O)OCC
Settings	excess molar enthalpy [kJ/mol]	mass density [kg/m3]
[1], x2 = 0.0651	–	1052.45
[1], x2 = 0.1277	–	1041.56
[1], x2 = 0.1889	–	1030.69
[1], x2 = 0.2509	–	1019.59
[1], x2 = 0.3119	–	1008.53
[1], x2 = 0.3711	–	997.66
[1], x2 = 0.4384	–	985.13
[1], x2 = 0.4971	–	974.07
[1], x2 = 0.5548	–	963.05
[1], x2 = 0.6131	–	951.77
[1], x2 = 0.67	–	940.63
[1], x2 = 0.7263	–	929.48
[1], x2 = 0.7824	–	918.28
[1], x2 = 0.8369	–	907.25
[1], x2 = 0.8922	–	895.96
[1], x2 = 0.9457	–	884.85
[2], x2 = 0.051	-0.0033	–
[2], x2 = 0.1085	-0.0092	–
[2], x2 = 0.1746	-0.0236	–
[2], x2 = 0.2423	-0.0421	–
[2], x2 = 0.3076	-0.0662	–
[2], x2 = 0.3688	-0.0846	–
[2], x2 = 0.4325	-0.106	–
[2], x2 = 0.4782	-0.119	–
[2], x2 = 0.525	-0.135	–
[2], x2 = 0.5779	-0.142	–
[2], x2 = 0.6383	-0.145	–
[2], x2 = 0.7034	-0.131	–
[2], x2 = 0.7744	-0.106	–
[2], x2 = 0.8524	-0.0747	–
[2], x2 = 0.9323	-0.0397	–
